Where two headings read alike, the source gives them in different places.
Legend:
[1] = Relative Energy Difference (RED) with cholesterol, calculated from HSP; conditions: for Relative Energy Difference (RED) with cholesterol: RED=Ra/Ro, Ro of cholesterol 12.6; for Ra^2 versus cholesterol: Eq. 1
Method: The extent to which two compounds will dissolve each other can be quantified using the equations developed by Hansen: (Ra)^2=4(δd2−δd1)^2+(δp2−δp1)^2+(δh2−δh1)^2 Eq. (1) RED=Ra/Ro Eq. (2)
Equation 1 calculates the relative magnitude difference of the three Hansen parameters of the two compounds to arrive at Ra. […] Equation 2 allows one to calculate the Relative Energy Difference (RED) of the solvent and the material we are trying to dissolve, by dividing Ra by Ro. Ra was calculated in Equation 1 and measures the magnitude of the difference of the HSP values of the two compounds. The units for the HSP parameters δd, δp, δh are MPa^1/2. […] The Relative Energy Difference (RED) is a dimensionless number which quantifies how well a solvent will dissolve a solute. For an RED>>1 the compounds will not dissolve. For an RED˜1, there will be some dissolution. For an RED<1 there will be a considerable amount of dissolution. Essentially, the smaller RED value, the more solute will dissolve into the solvent, with RED=1 being a threshold where a given solute is starting to be soluble in a given solvent.
Referring now to FIG. 6, this diagram provides a flow chart showing how the biocompatible microdroplet solvent emulsion can be formulated. […] For an example of compounds which might be included in 400, please refer to Tables 1, 2, 3 and 4. However, this list of tables is by no means exhaustive and other compounds could be added to this list. The number of compounds selected can comprise of 1, 2, 3 or as many as are deemed necessary, which is symbolized by the variable n. The HSP parameters of a homogenous mixture of compounds are the weighted average of the HSP parameters of the individual components. […] Ideally, it is possible to formulate a solution such that the resultant RED of the mixture is smaller than the RED of any of the individual components.
The δdm, δpm, δhm calculated using Eq. 9 are the Hansen solubility parameters of the homogenous mixture, where m denotes mixture, and fi depicts the fraction of each of the n components used to fabricate the biocompatible solvent. Equation 10 can be used to calculate the RED of the final mixture, where Ro is the interaction radius of the cholesterol, or other component of arterial plaque one desires to dissolve using the biocompatible microdroplets and […] represents the Hansen solubility constants of cholesterol (dispersion, polar and hydrogen bonding components) or the HSP parameter of the arterial plaque which is being targeted.

[2] = single compound; cited from earlier work
[3] = cited from earlier work
[4] = cited from earlier work; remark: listed apart in the source
[5] = cited from earlier work; for LD50 dose: route not stated
[6] = Dissolving cholesterol by microdroplets in whole blood; conditions: whole blood
Excerpt: (§1) To effectively dissolve arterial plaque in-vivo it is very important that the biocompatible solvent be sufficiently insoluble in blood to allow a small discrete microdroplet to travel through the blood stream, from the injection point, to the plaque which is being treated. If the biocompatible solvent dissolves within the blood, such as an alcohol, the solubility parameters of the resultant mixture will be very nearly identical to that of blood and will not dissolve cholesterol or arterial plaque. Conversely, if a discrete microdroplet of the biocompatible solvent makes contact with the plaque, then the cholesterol molecule in the plaque will be surrounded by multiple molecules of the biocompatible solvent, which have similar solubility parameters as the cholesterol, and the cholesterol will be drawn away from the plaque and into the droplet. […] An organic salt, Esters, an organo-metallic compound could also be used as the main component or an addition to the biocompatible microdroplet solvent means. Essentially any organic molecule which can be administered intravenously with acceptable side effects, is sufficiently insoluble in blood to travel as a discrete microdroplet without being dissolved prior to reaching arterial plaque and which is capable of dissolving cholesterol, cholesterol esters or other materials within the arterial plaque, could potentially be used.
(§2) 1,8-cineole is classified as a cyclic ether and a monoterpenoid. […] This chemical gives certain fruits such as apples and strawberries their fruity taste, and is used as an additive in bubble gums for this purpose. […] It is used as a fragrance or flavouring agent. […] It is produced natuarally by the organism, and is found in abundance in shark liver oil.

[7] = Water insoluble solvents tested for dissolving cholesterol / arterial plaque; conditions: medium not stated
Excerpt: as §1

[8] = Dissolving cholesterol by microdroplets in a dilute solution in water
Excerpt: as §2

Row | Structure (SMILES) | Relative Energy Difference (RED) with cholesterol [1] | δd London dispersion HSP parameter [2] [MPa^1/2] | δh hydrogen bonding HSP parameter [2] [MPa^1/2] | δp polarity HSP parameter [2] [MPa^1/2] | efficacy of microdroplets at dissolving cholesterol in whole blood [6] | also measured
1 | CC(=O)c1ccccc1 [Acetophenone] | 0.66 | 19.6 | 3.7 | 8.6 | – | solubility in water / water based blood ([3]; in words): somewhat soluble in water
2 | O=C(O)c1ccccc1 [Benzoic acid] | – | – | – | – | – | time to excretion in the urine ([4]; after ingestion): ≤ 24 h
3 | O=C(OCc1ccccc1)c1ccccc1 [Benzyl benzoate] | – | 20 | 5.2 | 5.1 | – | Ra^2 versus cholesterol [1]: 24; LD50 dose [5]: 1.68 g/kg
4 | Cc1ccc(C(C)C)cc1O [Carvacrol] | 0.64 | 16.5 | 11.4 | 3.2 | excellent results | solubility in water / water based blood [3]: insoluble in water
5 | CCOC(=O)OCC [Diethyl carbonate] | – | 16.6 | 6.1 | 3.1 | – | LD50 ([5]; oral): 8500 mg/kg
6 | c1ccc(Oc2ccccc2)cc1 [Diphenyl ether] | 0.32 | 19.5 | 5.8 | 3.4 | excellent results | Ra^2 versus cholesterol [1]: 17; LD50 dose [5]: 2.85 g/kg of body weight; excreted in the urine ([4]; once absorbed): 90%
7 | CC/C=C\C/C=C\C/C=C\C/C=C\C/C=C\CCCC(=O)O [Elcosapentaenoic acid] | – | – | – | – | – | result of solvent testing (dissolving cholesterol) [7]: very promising results
8 | C=C(C)[C@H]1CC=C(C)CC1 [Limonene] | – | 17.2 | 4.3 | 1.8 | the cholesterol sample seemed to accumulate precipitate and swell | dissolving cholesterol in a dilute solution in water [8]: dissolved cholesterol
9 | CCCCC/C=C\C/C=C\CCCCCCCC(=O)O [Linoleic acid] | – | – | – | – | – | result of solvent testing (dissolving cholesterol) [7]: very promising results

— patent publication US11123292B2, “Use of biocompatible microdroplets for the treatment of atherosclerosis, heart disease and stroke” (priority 2014, dated 2021)
